Test results: ChEMBL document CHEMBL1641537, “Chalcone-based inhibitors against hypoxia-inducible factor 1--structure activity relationship studies” (Bioorg Med Chem Lett, 2011)

Assay: Inhibition of cobalt chloride-induced HIF-1 activation expressed in mouse NIH3T3 cells after 8 hrs by luciferase reporter gene assay
Type: cell-based
Conditions: NIH3T3, 8 h

| SMILES | IC50 [µM] |
| --- | --- |
| O=C(/C=C/c1ccccc1)c1ccc(F)cc1 | > 20 |
| O=C(/C=C/c1ccccc1O)c1ccccc1 | > 20 |
| COc1cc(O)c(C(=O)/C(C)=C/c2ccccc2)c(OC)c1 | > 20 |
| COc1cc(O)c(C(=O)/C=C/c2ccccc2Br)c(OC)c1 | 11.6 |
| Cc1ccc(C(=O)/C=C/c2ccccc2)cc1 | > 20 |
| COc1cc(O)c(C(=O)/C=C/c2ccccc2C)c(OC)c1 | 9.9 |
| COc1cc(O)c(C(=O)/C=C/c2cccc(Br)c2)c(OC)c1 | 2.2 |
| COc1cc(O)c(C(=O)/C=C/c2cccc(C)c2)c(OC)c1 | 3.6 |
| COc1cc(O)c(C(=O)/C=C/c2ccc(F)cc2)c(OC)c1 | > 20 |
| O=C(/C=C/c1ccccc1)c1ccc(F)c(F)c1 | > 20 |
| O=C(/C=C/c1ccccc1)c1ccc(C(F)(F)F)cc1 | > 20 |
| CCCOc1ccc(/C=C/C(=O)c2c(O)cc(OC)cc2OC)cc1 | 12 |
| COc1cc(O)c(C(=O)/C=C/c2ccc(Cl)cc2)c(OC)c1 | > 20 |
| O=C(/C=C/c1ccc(O)cc1)c1ccccc1 [4-HYDROXYCHALCONE] | > 20 |
| O=C(/C=C/c1ccc(O)c(O)c1)c1ccc(O)cc1O [BUTEIN] | > 20 |
| COc1cc(/C=C/C(=O)CC(=O)/C=C/c2ccc(O)c(OC)c2)ccc1O [CURCUMIN] | 9.6 |
| COc1ccc(/C=C/C(=O)c2c(O)cc(OC)cc2OC)cc1 [FLAVOKAWAIN A] | 11 |
| COc1cc(O)c(C(=O)/C=C/c2ccccc2)c(OC)c1 [FLAVOKAWAIN B] | 3.3 |
| COc1cc(O)c(C(=O)/C=C/c2ccc(O)cc2)c(OC)c1 [FLAVOKAWAIN C] | 3.1 |
| CC(C)=CCc1c(O)cc(C(=O)[C@H]2[C@@H](c3c(O)ccc(C(=O)/C=C/c4ccc(O)cc4O)c3O)C=C(C)C[C@@H]2c2ccc(O)cc2O)cc1O [KUWANON J] | 4.1 |
| CC(C)=CCc1c(O)cc(C(=O)[C@H]2[C@@H](c3c(O)ccc(C(=O)/C=C/c4ccc(O)cc4)c3O)C=C(C)C[C@@H]2c2ccc(O)cc2O)cc1O [KUWANON R] | 3.2 |
| CC(C)=CCc1c(O)cc(C(=O)[C@H]2[C@@H](c3c(O)ccc(C(=O)/C=C/c4ccc(O)cc4)c3O)C=C(C)C[C@@H]2c2ccc(O)cc2)cc1O [KUWANON V] | 8.3 |
